One test has as its system MCF7 cells. The test can be described thus: In Vitro cell cycle analysis assay (FACS). Particulars: 10 μM, 24 hours. The format is cell-based, human. The method, then: This assay determines the ability of a test compound to arrest cells in specific phases of the cell cycle. Many different mammalian cell lines could be used in this assay and MCF7 cells are included here as an example. MCF-7 cells were seeded at 3×10^5 cells per T25 flask (Costar) in 5 ml DMEM (no phenol red 10% FCS, 1% L-glutamine 1% penicillin/streptomycin). Flasks were then incubated overnight in a humidified 37° C. incubator with 5% CO2. The following day 1 ml of DMEM (no phenol red 10% FCS, 1% L-glutamine 1% penicillin/streptomycin) carrying the appropriate concentration of test compound solubilised in DMSO was added to the flask. A no compound control treatments was also included (0.5% DMSO). The cells were then incubated for a defined time (usually 24 hours) with compound. After this time the media was aspirated from the cells and they were washed with 5 ml of prewarmed (37° C.) sterile PBSA, then detached from the flask by brief incubation with trypsin and followed by resuspension in 10 ml of 1% Bovine Serum Albumin (BSA, Sigma-Aldrich Co.) in sterile PBSA. The samples were then centrifuged at 2200 rpm for 10 min. The supernatant was aspirated and the cell pellet was resuspended in 200 μl of 0.1% (w/v) Tris sodium citrate, 0.0564% (w/v) NaCl, 0.03% (v/v) Nonidet NP40, [pH 7.6]. Propridium Iodide (Sigma Aldrich Co.) was added to 40 μg/ml and RNAase A (Sigma Aldrich Co.) to 100 μg/ml. The cells were then incubated at 37° C. for 30 minutes. The samples were centrifuged at 2200 rpm for 10 min, the supernatant removed and the remaining pellet (nuclei) resuspended in 200 μl of sterile PBSA. […] The samples were then transferred to LPS tubes and DNA content per cell analysed by Fluorescence activated cell sorting (FACS) using a FACScan flow cytometer (Becton Dickinson). Typically 25000 events were counted and recorded using CellQuest v1.1 software (Verity Software). Cell cycle distribution of the population was calculated using Modfit software (Verity Software) and expressed as percentage of cells in G0/G1, S and G2/M phases of the cell cycle. […]

A further test has as its target T1, aurora2 kinase (Homo sapiens, UniProt O14965).
T1 construct: made in house; host or cells: Spodoptera frugiperda Sf21 insect cells (baculovirus)
T1 sequence (O14965 1-403): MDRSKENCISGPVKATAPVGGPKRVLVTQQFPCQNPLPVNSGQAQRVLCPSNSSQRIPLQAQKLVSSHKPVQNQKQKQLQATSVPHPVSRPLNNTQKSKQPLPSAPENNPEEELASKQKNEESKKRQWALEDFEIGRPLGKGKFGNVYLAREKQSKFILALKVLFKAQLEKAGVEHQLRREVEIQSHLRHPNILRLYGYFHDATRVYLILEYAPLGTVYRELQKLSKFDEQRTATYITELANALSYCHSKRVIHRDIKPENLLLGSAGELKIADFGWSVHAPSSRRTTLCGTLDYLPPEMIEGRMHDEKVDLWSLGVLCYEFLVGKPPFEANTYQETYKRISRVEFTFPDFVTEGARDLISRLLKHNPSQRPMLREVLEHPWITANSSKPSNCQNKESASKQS
The test can be described thus: In Vitro aurora2 kinase inhibition test. The format is biochemical.

Test [1] has as its system MCF-7 cells. The test can be described thus: In Vitro cell proliferation assay, Assay 1 (CyQUANT cell density). Format: cell-based. To be noted: Homo sapiens, MCF7, 72 h, MCF-7, 3 days in presence of compound, read-out: concentration giving 50% inhibition of cell proliferation. From the text:
(§1) These and other assays can be used to determine the ability of a test compound to inhibit the growth of adherent mammalian cell lines, for example the human tumour cell line MCF7.
MCF-7 (ATCC HTB-22) or other adherent cells were typically seeded at 1×10^3 cells per well (excluding the peripheral wells) in DMEM (Sigma Aldrich) without phenol red, plus 10% foetal calf serum, 1% L-glutamine and 1% penicillin/streptomycin in 96 well tissue culture treated clear plates (Costar). The following day (day 1), the media was removed from a no treatment control plate and the plate stored at −80° C. The remaining plates were dosed with compound (diluted from 10 mM stock in DMSO using DMEM (without phenol red, 10% FCS, 1% L-glutamine, 1% penicillin/streptomycin). Untreated control wells were included on each plate. After 3 days in the presence/absence of compound (day 4) the media was removed and the plates stored at −80° C. Twenty four hours later the plates were thawed at room temperature and cell density determined using the CyQUANT cell proliferation assay kit (c-7026/c-7027 Molecular Probes Inc.) according to manufacturers directions. Briefly, 200 μl of cell lysis/dye mixture (10 μl of 20× cell lysis buffer B, 190 μl of sterile water, 0.25 μl of CYQUANT GR dye) was added to each well and the plates incubated at room temperature for 5 minutes in the dark. […]

The subject of test [2] is MCF-7 cells. The test can be described thus: In Vitro cell proliferation assay, Assay 2 (BrdU incorporation). To be noted: Homo sapiens, MCF7; MCF-7, 48 hours with compound, 2 hour BrdU labelling; read-out: concentration giving 50% inhibition of BrdU incorporation. Format: cell-based.
Text: as §1
This assay determines the ability of at test compound to inhibit the incorporation of the thymidine analogue, 5′-bromo-2′-deoxy-uridine (BrdU) into cellular DNA. MCF-7 or other adherent cells were typically seeded at 0.8×10^4 cells per well in DMEM (Sigma Aldrich) without phenol red, plus 10% foetal calf serum, 1% L-glutamine and 1% penicillin/streptomycin (50 μl/well) in 96 well tissue culture treated 96 well plates (Costar) and allowed to adhere overnight. […] The optical density of the wells was then determined at 690 nm wavelength using a Titertek Multiscan plate reader. […]

The structures appear in SMILES notation.

For `COc1cc2ncnc(Nc3cnc(NC(=O)c4ccccc4)nc3)c2cc1OC` [Compound 6], in the test with MCF7 cells, the “% Cells in G1” value was 43.22%, the “% Cells in G2/M” value stood at 30.38% and the “% Cells in S” value came out at 18%. Also, the IC50 on aurora2 kinase came out at 0.00785 µM. In addition, the IC50 with MCF-7 cells [1] is 1.7 µM. Also, the IC50 with MCF-7 cells [2] is 1.92 to 2.85 µM.
